This note sets out measurements from PMC6332026, “Synthesis and Pharmacochemistry of New Pleiotropic Pyrrolyl Derivatives” (Molecules, 2015).

Molecules are shown by their SMILES.

A short description of the assay: Interaction with the stable free radical DPPH (reducing activity). To be noted: 1000 μM compound, DPPH 50 μM. The method, then: 2,2-Diphenyl-1-picrylhydrazyl (DPPH) is a lipophilic, free, stable radical, which absorbs at 517 nm (violet color). Upon reduction, decolorization is observed that is stoichiometric to the number of received electrons and is representative of the antioxidant ability of compounds. […] This interaction, which indicates their radical scavenging ability in an iron-free system, was measured at 100 and 1000 μM after 20 and 60 min, whereas the final concentration of DPPH was stable at 50 μΜ.
[…] The absorbance was measured at 517 nm after 20 and 60 min at room temperature.
(DPPH is a stable violet radical that fades when it is reduced.)

In the case of `O=C(c1cccs1)c1c[nH]cc1-c1ccc(OCc2ccc(Br)cc2)cc1` [Compound 2iii, (4-{4-[(4-Bromobenzyl)oxy]phenyl}-1H-pyrrol-3-yl)(thien-2-yl)methanone], the “RA % (interaction with DPPH)” value stood at 4% (20 min) and 5% (60 min).
As to `O=C(c1ccccc1)c1c[nH]cc1-c1cccc2ccccc12` [Compound 2iv, [4-(Naphth-1-yl)-1H-pyrrol-3-yl](phenyl)methanone], the “RA % (interaction with DPPH)” value by setting is: (20 min) 8%; (60 min) 10%.
